Source: the supplement of paper PMC10307832

Legend:
Experiment in all cases: relative viability (nuclei count vs DMSO), 5 days (fraction); higher = more cells survive
[1] = compound: CC(C)C[C@H](NC(=O)[C@H](CCc1ccccc1)NC(=O)CN1CCOCC1)C(=O)N[C@@H](Cc1ccccc1)C(=O)N[C@@H](CC(C)C)C(=O)[C@@]1(C)CO1 [Carfilzomib] + CC(=O)c1c(C)c2cnc(Nc3ccc(N4CCNCC4)cn3)nc2n(C2CCCC2)c1=O [Palbociclib] (partner 0.5 µM)
Summary of the method: (§1)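 Relative viability divides the nuclei count in treated wells by that in vehicle wells. Lung cancer cell lines were seeded in 1536-well plates, dosed by pin tool the next day, and fixed and stained after 5 days in one step with final 0.05% Triton X-100, 1% formaldehyde and 1 ug/ml Hoechst. Dosing was a single drug or a fixed anchor-drug dose plus five library-drug doses (not always all listed) in √10 steps, and values are medians of duplicate plates imaged at 4×.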

[2] = compound: CC(C)C[C@H](NC(=O)[C@H](CCc1ccccc1)NC(=O)CN1CCOCC1)C(=O)N[C@@H](Cc1ccccc1)C(=O)N[C@@H](CC(C)C)C(=O)[C@@]1(C)CO1 [Carfilzomib] + CCNC(=O)c1noc(-c2cc(C(C)C)c(O)cc2O)c1-c1ccc(CN2CCOCC2)cc1 [Luminespib] (partner 0.01 µM)
Summary of the method: as §1

[3] = compound: C[C@@H](Oc1cc(-c2cnn(C3CCNCC3)c2)cnc1N)c1c(Cl)ccc(F)c1Cl [Crizotinib] + Cc1nc(NC(=O)N2CCC[C@H]2C(N)=O)sc1-c1ccnc(C(C)(C)C(F)(F)F)c1 [Alpelisib] (partner 2 µM)
Summary of the method: as §1

[4] = compound: C[C@@H](Oc1cc(-c2cnn(C3CCNCC3)c2)cnc1N)c1c(Cl)ccc(F)c1Cl [Crizotinib] + NC(=O)Nc1cc(-c2cccc(F)c2)sc1C(=O)N[C@H]1CCCNC1 [AZD7762] (partner 0.2 µM)
Summary of the method: as §1

| Cell Line | relative viability ([1]; first compound 0.001 µM) | relative viability ([1]; first compound 0.003162 µM) | relative viability ([1]; first compound 0.01 µM) | relative viability ([1]; first compound 0.03162 µM) | relative viability ([1]; first compound 0.1 µM) | relative viability ([2]; first compound 0.001 µM) | relative viability ([2]; first compound 0.003162 µM) | relative viability ([2]; first compound 0.01 µM) | relative viability ([2]; first compound 0.03162 µM) | relative viability ([2]; first compound 0.1 µM) | relative viability ([3]; first compound 0.01 µM) | relative viability ([3]; first compound 0.03162 µM) | relative viability ([3]; first compound 0.1 µM) | relative viability ([3]; first compound 0.3162 µM) | relative viability ([3]; first compound 1 µM) | relative viability ([4]; first compound 0.01 µM) | relative viability ([4]; first compound 0.03162 µM) | relative viability ([4]; first compound 0.1 µM) | relative viability ([4]; first compound 0.3162 µM) | relative viability ([4]; first compound 1 µM) |
| --- | --- | --- | --- | --- | --- | --- | --- | --- | --- | --- | --- | --- | --- | --- | --- | --- | --- | --- | --- | --- |
| CAL-12T | 0.507 | 0.507 | 0.586 | 0.165 | 0.145 | 0.486 | 0.29 | 0.478 | 0.16 | 0.141 | 1.19 | 1.35 | 1.28 | 1.13 | 1.36 | 0.527 | 0.679 | 0.624 | 0.635 | 0.694 |
| EPLC-272H | 0.285 | 0.337 | 0.317 | 0.114 | 0.0482 | 0.266 | 0.694 | 0.269 | 0.151 | 0.101 | 0.862 | 0.854 | 0.942 | 0.864 | 1.02 | 0.209 | 0.19 | 0.263 |  | 0.35 |
| NCI-H23 | 0.508 | 0.484 | 0.429 | 0.212 | 0.116 | 0.211 | 0.201 | 0.201 | 0.188 | 0.184 | 0.691 | 0.662 | 0.572 |  | 0.724 | 0.281 | 0.323 | 0.297 |  | 0.261 |
| H3255 | 0.334 | 0.331 | 0.309 | 0.231 | 0.264 | 0.847 | 0.904 | 0.797 | 0.656 | 0.143 | 0.622 | 0.73 | 0.705 | 0.62 | 0.639 | 0.833 | 0.88 | 0.819 |  | 0.923 |
| NCI-H1355 | 0.41 | 0.419 | 0.432 | 0.422 | 0.139 | 0.723 | 0.791 | 0.731 | 0.606 | 0.238 | 0.832 | 0.806 | 0.857 | 0.849 | 0.878 | 0.678 | 0.707 | 0.867 | 0.675 | 0.769 |
| NCI-H1395 |  | 0.676 | 0.635 | 0.497 | 0.31 | 0.594 | 0.783 | 0.66 | 0.561 | 0.309 | 0.996 | 0.928 | 1.09 | 1.11 | 1.26 | 0.381 | 0.372 | 0.429 | 0.43 | 0.397 |
| EMC-BAC-2 | 0.531 | 0.539 | 0.51 | 0.455 | 0.316 | 1.13 | 1.24 | 1.26 | 1.16 | 0.225 | 0.76 | 0.818 | 0.715 |  | 0.781 | 1.07 | 1.1 | 1.05 |  | 1.08 |
| HCC-44 | 1.02 | 0.938 | 0.999 | 0.999 | 0.69 | 1.01 | 1.15 | 0.955 | 0.471 | 0.212 | 0.808 | 0.801 | 0.853 | 0.744 | 0.815 | 0.971 | 0.997 | 1.04 | 0.936 | 1.02 |
| PC-3 [JPC-3] | 0.516 | 0.539 | 0.564 | 0.502 | 0.333 | 0.754 | 0.706 | 0.742 | 0.646 | 0.331 | 0.959 | 1.04 | 1.05 | 0.998 | 1.07 | 0.687 |  | 0.907 |  | 0.772 |
| NCI-H1734 | 0.346 | 0.382 | 0.354 | 0.315 | 0.105 | 0.188 | 0.177 | 0.235 | 0.184 | 0.107 | 0.659 | 0.646 | 0.661 |  | 0.633 | 0.51 | 0.509 | 0.553 |  | 0.616 |
| HOP-62 | 0.44 | 0.496 | 0.41 | 0.19 | 0.0616 | 0.986 | 0.91 | 0.849 | 0.784 | 0.0941 | 0.93 | 1 | 0.731 | 0.964 | 1.08 | 0.447 | 0.508 | 0.622 | 0.565 | 0.633 |
| HARA | 0.28 | 0.257 | 0.306 | 0.182 | 0.0965 | 0.871 | 0.576 | 0.615 | 0.051 | 0.0562 | 0.859 | 0.836 | 0.863 | 0.881 | 0.767 | 0.216 | 0.274 | 0.679 | 0.382 | 0.516 |
| NCI-H1993 | 0.667 | 0.658 | 0.641 | 0.723 | 0.383 | 0.9 | 0.932 | 0.983 | 0.71 | 0.462 | 0.669 | 0.625 | 0.652 | 0.715 | 0.737 | 0.702 | 0.75 |  | 0.379 | 0.527 |
| NCI-H460 | 0.125 | 0.225 | 0.0809 | 0.0983 | 0.0171 | 0.0383 | 0.0252 | 0.0369 | 0.0311 | 0.0158 | 0.495 | 0.404 | 0.46 | 0.504 | 0.442 | 0.592 | 0.64 | 0.665 |  | 0.607 |
